Data from ChEMBL document CHEMBL1201862, “PubChem BioAssay data set” (2004).
The source made the active and inactive calls.

Tests used:
[1] = target: T1, Dual specificity protein phosphatase 6 (Rattus norvegicus, UniProt Q64346)
T1 sequence (Q64346 whole entry): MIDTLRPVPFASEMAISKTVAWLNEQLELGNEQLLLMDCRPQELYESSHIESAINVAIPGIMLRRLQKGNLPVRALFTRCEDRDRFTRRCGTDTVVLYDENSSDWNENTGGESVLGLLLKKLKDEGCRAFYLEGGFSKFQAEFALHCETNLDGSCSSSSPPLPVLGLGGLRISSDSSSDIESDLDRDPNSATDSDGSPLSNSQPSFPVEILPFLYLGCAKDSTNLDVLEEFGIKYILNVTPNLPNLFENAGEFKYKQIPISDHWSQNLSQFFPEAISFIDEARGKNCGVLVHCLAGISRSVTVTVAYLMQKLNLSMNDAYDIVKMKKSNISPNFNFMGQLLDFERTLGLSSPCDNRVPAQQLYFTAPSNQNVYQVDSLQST

[2] = target: T2, Tyrosine-protein phosphatase non-receptor type 7 (Homo sapiens, UniProt P35236); type: functional
T2 sequence (P35236 whole entry): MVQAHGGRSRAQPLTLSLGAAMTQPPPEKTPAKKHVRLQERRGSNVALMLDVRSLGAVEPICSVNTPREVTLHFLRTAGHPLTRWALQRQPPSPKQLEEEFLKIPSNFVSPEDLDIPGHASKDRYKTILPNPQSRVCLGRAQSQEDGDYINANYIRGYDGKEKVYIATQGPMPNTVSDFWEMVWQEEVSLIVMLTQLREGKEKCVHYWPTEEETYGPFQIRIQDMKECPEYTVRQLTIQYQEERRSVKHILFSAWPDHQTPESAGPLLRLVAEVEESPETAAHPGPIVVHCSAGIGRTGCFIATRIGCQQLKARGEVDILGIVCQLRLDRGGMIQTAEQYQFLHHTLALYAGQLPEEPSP

[3] = target: T1, Dual specificity protein phosphatase 6; type: functional
[4] = target: Glyceraldehyde-3-phosphate dehydrogenase (Homo sapiens, UniProt P04406)
[5] = test system: Jurkat; assay: blockers of NF-kB activation in T cells – Jurkat, luciferase reporter, luminescence, B- and T-cell, dose response (AID 489004); type: functional, cell-based; conditions: Homo sapiens;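 also: NF-kB luciferase reporter Jurkat cells stimulated with PMA plus ionomycin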
[6] = HEK-293T viability loss, compound-treated – cell-based, uHTS hits, cytotoxicity control for B/T-cell NF-kB inhibitor project, dose response (AID 489019); type: functional;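 also: IC50 reflects cytotoxicity as loss of cell viability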
[7] = target: Galanin receptor type 3 (Homo sapiens, UniProt O60755); assay: Fluorescence-based cell-based primary high throughput dose response assay to identify antagonists of the Galanin Receptor 3 (GalR3).; type: functional
[8] = cells; type: functional, cell-based; conditions: HEK-CNG
[9] = test system: Escherichia coli; assay: microbe, parasite or virus in culture
[10] = test system: Escherichia coli; assay: microbe, parasite or virus in culture; remark: listed apart in the source
[11] = target: Latent membrane protein 1 (Human herpesvirus 4 (strain B95-8), UniProt P03230); assay: LMP1 TES1 pathway selectivity over dsRED control – imaging, HEK293T, dual-color eGFP/dsRED, cherry-picks, selectivity assay for LMP1 NF-kB inhibitor project, dose response (AID 588398); type: functional, cell-based
[12] = test system: HEK293; assay: EBV LMP1 TES2 canonical NF-kB signalling blockers – cell-based, HEK293, luciferase, cherry-pick, dose response (AID 588343); type: functional; conditions: Homo sapiens
[13] = target: T3, Hexokinase-1 (Homo sapiens, UniProt P19367); assay: SAR analysis of small molecule inhibitors of hexokinase domain containing I (HKDC1) in the hexokinase 1 selectivity assay. [Related pubchem assays (depositor defined):AID493160, AID493190]; type: functional
T3 sequence (P19367 whole entry): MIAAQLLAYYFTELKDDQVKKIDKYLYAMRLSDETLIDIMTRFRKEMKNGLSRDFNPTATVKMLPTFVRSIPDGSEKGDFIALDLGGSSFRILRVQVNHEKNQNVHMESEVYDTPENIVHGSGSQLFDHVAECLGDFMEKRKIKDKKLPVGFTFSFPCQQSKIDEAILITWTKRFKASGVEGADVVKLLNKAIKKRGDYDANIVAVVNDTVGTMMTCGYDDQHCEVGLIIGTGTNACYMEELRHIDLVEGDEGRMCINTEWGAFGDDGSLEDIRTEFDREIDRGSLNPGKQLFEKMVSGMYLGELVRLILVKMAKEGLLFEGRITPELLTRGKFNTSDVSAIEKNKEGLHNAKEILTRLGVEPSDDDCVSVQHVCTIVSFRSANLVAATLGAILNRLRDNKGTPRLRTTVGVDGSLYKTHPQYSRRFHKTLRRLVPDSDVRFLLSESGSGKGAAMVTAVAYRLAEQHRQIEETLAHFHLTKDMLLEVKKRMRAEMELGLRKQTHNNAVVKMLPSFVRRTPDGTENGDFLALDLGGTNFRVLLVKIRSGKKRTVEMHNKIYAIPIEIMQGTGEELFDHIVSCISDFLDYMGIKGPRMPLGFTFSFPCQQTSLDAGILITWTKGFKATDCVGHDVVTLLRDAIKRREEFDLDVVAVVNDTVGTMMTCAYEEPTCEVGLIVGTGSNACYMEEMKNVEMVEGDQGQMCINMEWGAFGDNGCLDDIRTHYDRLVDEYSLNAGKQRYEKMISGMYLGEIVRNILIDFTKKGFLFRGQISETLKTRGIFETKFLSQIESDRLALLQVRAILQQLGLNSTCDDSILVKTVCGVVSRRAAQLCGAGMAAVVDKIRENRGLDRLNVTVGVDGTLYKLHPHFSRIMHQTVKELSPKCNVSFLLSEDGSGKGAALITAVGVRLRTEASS

[14] = target: T4, Hexokinase HKDC1 (Homo sapiens, UniProt Q2TB90); assay: SAR analysis of small molecule inhibitors of hexokinase domain containing I (HKDC1). [Related pubchem assays (depositor defined):AID493160, AID493190]; type: functional
T4 sequence (Q2TB90 whole entry): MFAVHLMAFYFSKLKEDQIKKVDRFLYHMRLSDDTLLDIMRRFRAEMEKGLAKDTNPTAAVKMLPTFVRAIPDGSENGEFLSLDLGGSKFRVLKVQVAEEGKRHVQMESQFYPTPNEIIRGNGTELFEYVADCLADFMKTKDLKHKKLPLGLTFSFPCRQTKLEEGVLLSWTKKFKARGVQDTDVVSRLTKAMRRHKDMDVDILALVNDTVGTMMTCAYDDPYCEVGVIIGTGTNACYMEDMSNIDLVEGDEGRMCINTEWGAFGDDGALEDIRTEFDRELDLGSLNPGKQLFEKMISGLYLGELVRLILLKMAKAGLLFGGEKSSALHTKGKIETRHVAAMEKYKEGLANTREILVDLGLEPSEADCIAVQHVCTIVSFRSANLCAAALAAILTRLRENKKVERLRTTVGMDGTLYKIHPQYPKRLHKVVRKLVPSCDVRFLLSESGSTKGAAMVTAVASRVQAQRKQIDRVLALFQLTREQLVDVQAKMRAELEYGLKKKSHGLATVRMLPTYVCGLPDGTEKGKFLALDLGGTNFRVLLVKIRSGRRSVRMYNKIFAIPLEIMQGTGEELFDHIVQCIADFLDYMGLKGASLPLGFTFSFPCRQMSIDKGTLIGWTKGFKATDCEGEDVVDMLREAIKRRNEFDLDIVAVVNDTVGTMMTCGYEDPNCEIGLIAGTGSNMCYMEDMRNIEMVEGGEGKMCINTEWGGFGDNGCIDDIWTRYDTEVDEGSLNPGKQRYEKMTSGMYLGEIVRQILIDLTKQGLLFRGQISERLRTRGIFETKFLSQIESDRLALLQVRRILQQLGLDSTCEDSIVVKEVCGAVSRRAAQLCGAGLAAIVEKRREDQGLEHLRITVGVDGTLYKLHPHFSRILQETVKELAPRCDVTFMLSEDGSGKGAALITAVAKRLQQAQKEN

[15] = test system: CHO; assay: CHO cell viability loss, potency – luminescence, cytotoxicity control for TLR9-MyD88 binding inhibitor project, dose response (AID 588339); type: functional, cell-based, hamster; conditions: Cricetulus griseus;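 also: CHO cells stably coexpressing TLR9 and MyD88 fusions from primary screen; compound exposure lasted 48 hours before viability readout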
[16] = viability of HCT116 lacking mutant beta-catenin – cell-based, human colon tumor, dose response (AID 1045); type: functional;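 also: HCT116 colon tumor cells with beta catenin knocked out; cells exposed to compound for 60 hours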
[17] = target: T5, Microphthalmia-associated transcription factor (Homo sapiens, UniProt O75030); assay: reducers of TRPM1 reporter luminescence, concentration series – cell-based, SK-MEL-5, cherry-picked, set 3, MITF inhibitor project, dose response (AID 493073); type: functional;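 also: SK-MEL-5 melanoma cells with luciferase driven by the MITF target TRPM1 promoter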
T5 sequence (O75030 whole entry): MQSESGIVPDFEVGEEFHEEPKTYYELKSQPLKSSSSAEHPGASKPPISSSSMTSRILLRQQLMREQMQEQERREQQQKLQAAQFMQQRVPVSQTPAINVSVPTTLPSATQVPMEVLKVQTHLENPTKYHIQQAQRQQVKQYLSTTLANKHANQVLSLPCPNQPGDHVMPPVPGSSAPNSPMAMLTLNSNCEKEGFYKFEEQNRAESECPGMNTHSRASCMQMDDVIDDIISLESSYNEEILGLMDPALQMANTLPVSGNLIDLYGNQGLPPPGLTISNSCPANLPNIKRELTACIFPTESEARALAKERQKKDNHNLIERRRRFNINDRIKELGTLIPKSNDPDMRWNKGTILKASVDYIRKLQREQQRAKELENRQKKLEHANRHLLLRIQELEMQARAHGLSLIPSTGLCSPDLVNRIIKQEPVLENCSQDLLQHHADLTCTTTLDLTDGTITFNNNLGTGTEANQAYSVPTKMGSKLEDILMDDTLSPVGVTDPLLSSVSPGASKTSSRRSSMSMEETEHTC

[18] = viability of PTEN-deleted HCT116 cells – cell-based, HCT116 PTEN knockout, dose response (AID 1047); type: functional;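 also: HCT116 colon tumor cells with PTEN knocked out; cells exposed to compound for 60 hours before readout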
[19] = test system: A-375; assay: MITF: Counter assay: A375 proliferation Measured in Cell-Based System Using Plate Reader - 2084-03_Inhibitor_Dose_DryPowder_Activity. [Related pubchem assays (depositor defined):AID488944]; type: functional; conditions: Homo sapiens
[20] = target: CAAX prenyl protease 2 (Homo sapiens, UniProt Q9Y256); assay: inhibition of Ras-converting CAAX protease Rce1 – biochemical, yeast membranes, quenched-peptide fluorescence, cherry-pick, dose response (AID 588849)
[21] = potency of ADAM10 substrate cleavage blockers – biochemical, QFRET, dose response (AID 743254);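 also: ADAM10 enzyme with the DM2 quenched FRET peptide as substrate; EDANS fluorescence gain as the protease cuts the substrate; inhibitor potency against ADAM10 proteolytic activity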
[22] = viability loss in CEM21 cells – cell-based, CellTiter-Glo luminescence, cherry-picked, cytotoxicity control for viral fusion inhibitor project, dose response (AID 652042); type: functional;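 also: potency for signal decrease meaning cytotoxicity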
[23] = HIV-1 AD8 envelope cell-cell fusion blockers – cherry-pick, dose response (AID 652062); type: functional, cell-based;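 also: luciferase signal from cell-cell fusion driven by HIV-1 clade B AD8 Env; potency is for inhibitors of fusion seen as a drop in luminescence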
[24] = off-target signal loss in HeLa-CEM21 co-culture – HeLa F-luc CTL cells, cherry-picked, counter-screen for HIV-1 Env fusion inhibitor project, dose response (AID 652040); type: functional, cell-based;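 also: potency for signal decrease marking cytotoxic or nonspecific inhibition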
[25] = blockers of HIV-1 envelope-mediated cell-cell fusion – cherry-pick, dose response (AID 652057); type: functional, cell-based
[26] = blockers of HIV-1 ZM109 envelope-driven cell-cell fusion – HeLa effector, CEM target cells, luciferase, cherry-pick, dose response (AID 652058); type: functional, cell-based;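 also: luciferase signal from HIV-1 Env mediated cell-cell fusion of effector and target cells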
[27] = test system: INS1; assay: INS-1E survival protection against cytokine death – cell-based, luminescence, retest, dose response (AID 449756); type: functional; conditions: Rattus norvegicus;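 also: cell death triggered by IL-1 beta plus TNF-alpha plus IFN-gamma mixture; protective hits raise ATP signal compared with cytokine alone wells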
[28] = target: Disintegrin and metalloproteinase domain-containing protein 17 (Homo sapiens, UniProt P78536); assay: inhibition of ADAM17 substrate cleavage – biochemical, quenched FRET substrate, counter-screen for ADAM10 exosite inhibitor project, dose response (AID 743253)
Sequence of Disintegrin and metalloproteinase domain-containing protein 17 (P78536 whole entry, the tested form may be a part): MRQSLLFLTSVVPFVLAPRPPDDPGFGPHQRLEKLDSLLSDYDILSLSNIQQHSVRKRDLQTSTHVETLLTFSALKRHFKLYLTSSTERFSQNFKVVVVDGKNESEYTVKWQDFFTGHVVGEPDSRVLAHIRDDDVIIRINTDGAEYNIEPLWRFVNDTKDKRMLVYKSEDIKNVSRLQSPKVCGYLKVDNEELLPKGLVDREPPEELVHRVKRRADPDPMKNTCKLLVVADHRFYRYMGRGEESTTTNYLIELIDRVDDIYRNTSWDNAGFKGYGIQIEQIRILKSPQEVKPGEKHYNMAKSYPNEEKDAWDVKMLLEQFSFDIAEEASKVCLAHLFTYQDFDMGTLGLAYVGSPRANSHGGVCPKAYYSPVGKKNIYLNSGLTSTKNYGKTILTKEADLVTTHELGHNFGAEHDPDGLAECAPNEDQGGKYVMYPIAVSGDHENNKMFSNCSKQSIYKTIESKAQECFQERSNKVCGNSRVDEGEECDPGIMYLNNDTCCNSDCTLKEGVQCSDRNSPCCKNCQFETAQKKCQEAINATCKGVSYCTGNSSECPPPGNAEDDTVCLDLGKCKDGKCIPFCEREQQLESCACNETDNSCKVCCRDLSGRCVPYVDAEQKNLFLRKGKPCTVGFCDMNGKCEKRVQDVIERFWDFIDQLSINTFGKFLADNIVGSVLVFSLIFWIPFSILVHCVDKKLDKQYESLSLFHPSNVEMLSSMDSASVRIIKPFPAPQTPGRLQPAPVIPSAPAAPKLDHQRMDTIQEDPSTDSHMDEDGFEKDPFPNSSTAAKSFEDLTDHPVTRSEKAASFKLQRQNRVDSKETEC

Sequence of Latent membrane protein 1 (P03230 whole entry): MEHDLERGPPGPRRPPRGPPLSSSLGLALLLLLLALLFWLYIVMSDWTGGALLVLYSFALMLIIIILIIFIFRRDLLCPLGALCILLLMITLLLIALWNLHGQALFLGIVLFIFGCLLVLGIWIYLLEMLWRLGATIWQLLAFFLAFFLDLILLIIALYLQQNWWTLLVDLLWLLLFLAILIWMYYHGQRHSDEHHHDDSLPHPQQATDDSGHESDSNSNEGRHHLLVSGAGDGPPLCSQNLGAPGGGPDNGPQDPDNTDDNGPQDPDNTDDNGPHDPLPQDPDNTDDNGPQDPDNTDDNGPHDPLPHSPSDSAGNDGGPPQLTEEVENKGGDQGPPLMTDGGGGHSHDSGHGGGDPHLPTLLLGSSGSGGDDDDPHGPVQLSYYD
Sequence of Glyceraldehyde-3-phosphate dehydrogenase (P04406 whole entry): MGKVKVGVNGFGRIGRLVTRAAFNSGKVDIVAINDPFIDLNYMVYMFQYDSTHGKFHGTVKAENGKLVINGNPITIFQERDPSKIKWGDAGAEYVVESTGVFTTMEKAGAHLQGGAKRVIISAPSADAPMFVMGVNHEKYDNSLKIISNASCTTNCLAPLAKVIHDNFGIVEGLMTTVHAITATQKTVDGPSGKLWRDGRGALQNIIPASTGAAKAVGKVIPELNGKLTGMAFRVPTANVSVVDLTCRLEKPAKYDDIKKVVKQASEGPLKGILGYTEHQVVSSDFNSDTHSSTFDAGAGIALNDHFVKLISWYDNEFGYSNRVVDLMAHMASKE
Sequence of Galanin receptor type 3 (O60755 whole entry): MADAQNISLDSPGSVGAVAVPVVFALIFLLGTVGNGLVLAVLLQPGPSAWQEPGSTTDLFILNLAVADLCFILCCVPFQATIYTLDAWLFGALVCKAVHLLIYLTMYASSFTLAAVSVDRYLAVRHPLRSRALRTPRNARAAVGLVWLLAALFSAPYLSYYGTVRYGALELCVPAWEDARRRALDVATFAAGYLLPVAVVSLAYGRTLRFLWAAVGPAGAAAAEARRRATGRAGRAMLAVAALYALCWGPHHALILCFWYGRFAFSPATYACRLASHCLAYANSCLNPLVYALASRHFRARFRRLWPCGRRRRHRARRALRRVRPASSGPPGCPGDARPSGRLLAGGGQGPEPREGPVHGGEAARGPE
Sequence of CAAX prenyl protease 2 (Q9Y256 whole entry): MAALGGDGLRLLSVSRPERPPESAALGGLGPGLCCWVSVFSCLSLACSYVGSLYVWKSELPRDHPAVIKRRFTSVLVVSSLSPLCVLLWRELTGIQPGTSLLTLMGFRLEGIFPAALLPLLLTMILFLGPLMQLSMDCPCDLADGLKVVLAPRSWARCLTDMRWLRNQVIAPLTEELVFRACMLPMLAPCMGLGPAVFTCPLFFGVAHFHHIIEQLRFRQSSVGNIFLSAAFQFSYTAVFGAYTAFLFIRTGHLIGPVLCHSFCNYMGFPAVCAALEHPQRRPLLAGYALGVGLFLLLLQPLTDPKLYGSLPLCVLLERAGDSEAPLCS

Structure (SMILES): COc1ccc(-n2c(=O)nc(NCCc3cccc(Cl)c3)[nH]c2=O)cc1
- IC50 [1]: > 100 µM (inactive)
- IC50 [2]: > 100 µM (not active)
- IC50 [3]: > 100 µM (inactive)
- IC50 [4]: > 100 µM (not active)

Structure (SMILES): COc1cc2c(cc1OC)[C@@H]1C(=O)c3ccc4c(c3O[C@@H]1CO2)C[C@H](C(C)C)O4
- IC50 [5]: > 80 µM (inactive)
- IC50 [6]: > 80 µM (inactive)
- IC50 [7]: 0.0154 µM (active)
- EC50 [8]: > 29.9 µM (inactive)

Structure (SMILES): CCOC(=O)C(NC(C)=O)(Nc1ccc(F)cc1)C(F)(F)F (stereo not drawn)
- AC50 [9]: 74.8 µM (active)
- AC50 [10]: 36.2 µM (active)

Structure (SMILES): COc1cc([C@@H]2c3cc4c(cc3[C@@H](O[C@@H]3O[C@@H]5CO[C@@H](C)O[C@H]5[C@H](O)[C@H]3O)[C@H]3COC(=O)[C@H]23)OCO4)cc(OC)c1O [ETOPOSIDE]
- AC50 [11]: 0.4 µM (active)
- AC50 [12]: 0.784 µM (active)

Structure (SMILES): Cn1ncc(Cl)c1C(=O)NCc1ccc(Cl)cc1
- AC50 [10]: 22.7 µM (active)

Structure (SMILES): O=c1c2ccccc2nc(/C=C\c2ccccc2Cl)n1Cc1ccccc1
- IC50 [13]: > 80 µM (inactive)
- IC50 [14]: > 80 µM (inactive)

Structure (SMILES): CCCCN(C)CC(O)Cn1cc(/C=C/C(=O)c2cccs2)c2ccccc21 (stereo not drawn)
- IC50 [15]: 14.9 µM (inactive)
- EC50 [16]: 10.5 µM (active)
- AC50 [17]: 14.3 µM (active)
- EC50 [18]: 13.4 µM (active)
- AC50 [19]: 40.9 µM (active)

Structure (SMILES): COCCN1Cc2cccc(C(=O)N3CCN(c4cc(C)ccc4C)CC3)c2C1=O
- AC50 [11]: 53.1 µM (active)

Structure (SMILES): COc1ccccc1NC(=O)CN(c1ccc(C23CC4CC(CC(C4)C2)C3)cc1)S(C)(=O)=O
- AC50 [20]: 40.9 µM (active)
- IC50 [21]: > 69.5 µM (inactive)
- AC50 [22]: 47 µM (active)
- AC50 [23]: 8.59 µM (active)
- AC50 [24]: 8.12 µM (active)
- AC50 [25]: 4.53 µM (active)
- AC50 [26]: 3.45 µM (active)
- AC50 [27]: 4.49 µM (active)
- IC50 [28]: > 69.5 µM (inactive)

Structure (SMILES): CO[C@H]1/C=C\O[C@@]2(C)Oc3c(C)c(O)c4c(O)c(c5c(c4c3C2=O)=NC2(CCN(CC(C)C)CC2)N=5)NC(=O)/C(C)=C\C=C/[C@H](C)[C@H](O)[C@@H](C)[C@@H](O)[C@@H](C)[C@H](OC(C)=O)[C@@H]1C
- AC50 [9]: 15.9 µM (active)

Structure (SMILES): O=S(=O)(Nc1cc(Sc2nc[nH]n2)c(O)c2ccccc12)c1ccc(Cl)cc1
- IC50 [13]: 65.3 µM (inactive)
- IC50 [14]: 9.86 µM (active)
